Test systems include SK-MEL-2 melanoma; HOP-92 NSCLC; A498 renal; SF-295 CNS; UACC-257 melanoma; OVCAR-4 ovarian; HT29 colon; NCI-H23 lung; CAKI-1 renal; SNB-75 CNS; DU-145 prostate.
Test in all cases: NCI tumour cell line growth inhibition, 48 h

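1) Cells in 96-well plates. 2) Compound, 48 h, 5 concentrations. 3) Linear interpolation between surrounding doses. 4) Unreached endpoint = highest concentration. GI50 is the concentration that inhibits growth by half. TGI: total growth inhibition.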

`C/C(=N/N)c1sc(-c2nc(C)c(/C(C)=N\N)s2)nc1C`: the TGI in the experiment on SK-MEL-2 melanoma, in the experiment with HOP-92 NSCLC, with A498 renal, with SF-295 CNS, in the experiment with UACC-257 melanoma and in the experiment on OVCAR-4 ovarian was greater than 100 µM throughout. Further, the TGI with HT29 colon, in the experiment with NCI-H23 lung, in the experiment with CAKI-1 renal and in the experiment with SNB-75 CNS was greater than 100 µM throughout.
Regarding `CC(=O)c1cccc(Nc2nc3ccccc3c3[nH]c4ccccc4c23)c1`, the TGI is 24.2 µM in the experiment on SK-MEL-2 melanoma; 22.2 µM with HOP-92 NSCLC; 15.9 µM in the experiment with SF-295 CNS; greater than 100 µM in the experiment on UACC-257 melanoma; 17 µM in the experiment on HT29 colon; greater than 100 µM in the experiment with NCI-H23 lung. Further, the TGI was 23.4 µM in the experiment on CAKI-1 renal and greater than 100 µM with DU-145 prostate.
Consider `CN1CCN(Cc2ccccc2)CC1CC#N` (stereo not given), for which the TGI in the experiment on A498 renal, in the experiment with SF-295 CNS, in the experiment on UACC-257 melanoma, with OVCAR-4 ovarian, in the experiment on HT29 colon and in the experiment on NCI-H23 lung was greater than 100 µM in each case. Moreover, the TGI in the experiment with CAKI-1 renal, in the experiment on SNB-75 CNS and in the experiment on DU-145 prostate was greater than 100 µM in each case.
`CCOC(OC1=C(C#N)CCCC1)C(CC)[Se]c1ccccc1[N+](=O)[O-]` (stereo not given): the TGI was greater than 100 µM with SK-MEL-2 melanoma; 40.6 µM in the experiment with HOP-92 NSCLC; greater than 100 µM with A498 renal; 47 µM with SF-295 CNS; greater than 100 µM in the experiment on UACC-257 melanoma; 35.1 µM in the experiment on OVCAR-4 ovarian. In addition, the TGI is 31.4 µM in the experiment with HT29 colon, 31.3 µM in the experiment with NCI-H23 lung, greater than 100 µM in the experiment on CAKI-1 renal and 49.5 µM with SNB-75 CNS.
On to `CCN1C/C(=C\c2ccc(Cl)cc2)c2[nH]c(=O)c(C#N)c(-c3ccc(Cl)cc3)c2C1`, for which the TGI with SK-MEL-2 melanoma, in the experiment on HOP-92 NSCLC, in the experiment on A498 renal, in the experiment on UACC-257 melanoma, in the experiment with OVCAR-4 ovarian and with HT29 colon was greater than 100 µM throughout. Further, the TGI in the experiment on NCI-H23 lung and with DU-145 prostate was greater than 100 µM throughout.
For the compound `Cc1cc(S(=O)(=O)NC2=NCC(C)(C)CN2)c(S)cc1Cl`, the TGI in the experiment on SK-MEL-2 melanoma is greater than 100 µM; with A498 renal, greater than 100 µM; in the experiment with UACC-257 melanoma, greater than 100 µM; in the experiment on OVCAR-4 ovarian, 64.5 µM; with HT29 colon, 46.3 µM; with CAKI-1 renal, greater than 100 µM. The TGI in the experiment on SNB-75 CNS and with DU-145 prostate was greater than 100 µM each time.
With `Cc1ccc(O)c(C2=NNC(c3cccc(Cl)c3)C2)c1` (stereo not given), the TGI with SK-MEL-2 melanoma was 94.1 µM; in the experiment with HOP-92 NSCLC, 81.7 µM; in the experiment on SF-295 CNS, greater than 100 µM; with UACC-257 melanoma, greater than 100 µM; with OVCAR-4 ovarian, 94 µM; in the experiment on HT29 colon, greater than 100 µM. In addition, the TGI in the experiment with NCI-H23 lung, with CAKI-1 renal and with DU-145 prostate was greater than 100 µM in each case.
Regarding `COc1cc([C@@H]2c3cc4c(cc3[C@@H](NC(=O)NO)[C@H]3COC(=O)[C@H]23)OCO4)cc(OC)c1O`, the TGI in the experiment with SK-MEL-2 melanoma, in the experiment with HOP-92 NSCLC, in the experiment on A498 renal, with SF-295 CNS, in the experiment on UACC-257 melanoma and in the experiment on OVCAR-4 ovarian was greater than 100 µM each time. Also, the TGI with NCI-H23 lung, in the experiment on CAKI-1 renal and in the experiment on DU-145 prostate was greater than 100 µM throughout. Also, the GI50 is 4.97 µM in the experiment with SF-295 CNS, 9.31 µM in the experiment with NCI-H23 lung and 7.27 µM in the experiment on DU-145 prostate.
With `COC1(C)CNCC(C)(C)NC(=O)C(C)(OC)CNCC(C)(C)NC1=O` (stereo not given), the TGI in the experiment with SK-MEL-2 melanoma, with HOP-92 NSCLC, with A498 renal, with SF-295 CNS, with UACC-257 melanoma and in the experiment on OVCAR-4 ovarian was greater than 100 µM throughout. Further, the TGI in the experiment with HT29 colon, in the experiment on NCI-H23 lung, in the experiment on CAKI-1 renal and in the experiment on SNB-75 CNS was greater than 100 µM each time.
For `COC(=O)C1=COC2OC3CC1C2C(C)O3` (stereo not given), the TGI in the experiment on SK-MEL-2 melanoma, in the experiment on HOP-92 NSCLC, in the experiment with A498 renal, with SF-295 CNS, with UACC-257 melanoma and in the experiment on OVCAR-4 ovarian was greater than 100 µM throughout. For the same compound, the TGI with HT29 colon, in the experiment with NCI-H23 lung, in the experiment on CAKI-1 renal and in the experiment on DU-145 prostate was greater than 100 µM throughout.
For `CCCCCCCCCCCCCCCCCCOCC(O)CO` (stereo not given), the TGI is greater than 25 µM with SK-MEL-2 melanoma; 24.7 µM in the experiment with HOP-92 NSCLC; greater than 3.96 µM in the experiment with A498 renal; greater than 25 µM in the experiment on SF-295 CNS; greater than 25 µM with UACC-257 melanoma; greater than 25 µM with OVCAR-4 ovarian. Further, the TGI in the experiment with HT29 colon is greater than 15.8 µM; in the experiment with NCI-H23 lung, greater than 25 µM; in the experiment with CAKI-1 renal, greater than 5.39 µM; in the experiment with SNB-75 CNS, 24.8 µM.
For `Oc1ccc(/C=N/c2nccs2)c(O)c1`, the TGI with SF-295 CNS, in the experiment with UACC-257 melanoma, with HT29 colon, in the experiment on NCI-H23 lung, in the experiment on CAKI-1 renal and with SNB-75 CNS was greater than 100 µM throughout. This compound also displayed a TGI with DU-145 prostate greater than 100 µM.
Turning to `O=C1NC(N2CCCCC2)=N/C1=C\c1ccco1`, the TGI with SK-MEL-2 melanoma, with HOP-92 NSCLC, in the experiment on SF-295 CNS, in the experiment with UACC-257 melanoma, in the experiment with OVCAR-4 ovarian and in the experiment on HT29 colon was greater than 100 µM each time. In addition, the TGI in the experiment with NCI-H23 lung, in the experiment with CAKI-1 renal and with DU-145 prostate was greater than 100 µM each time.
In the case of `C1=Cc2cccc3occ(c23)C=C1`, the TGI in the experiment on SK-MEL-2 melanoma, in the experiment on HOP-92 NSCLC, in the experiment with A498 renal, with SF-295 CNS, with UACC-257 melanoma and in the experiment on OVCAR-4 ovarian was greater than 100 µM each time. Further, the TGI in the experiment on HT29 colon, with NCI-H23 lung, in the experiment on CAKI-1 renal and with DU-145 prostate was greater than 100 µM throughout.

Values taken from PubChem BioAssay (NCI).
